Assays:
Assay type in all cases: in vivo, Festuca arundinacea
[1] = tested on: cloned survivors from Coronado, Apache II and Tomahawk; test: Glyphosate screening of vegetative clones in cell pack planting flats; conditions: 1 quart per acre glyphosate with WA-100, clones in cell pack planting flats, sprayed 1 month after cloning
[2] = tested on: seedlings, progenies of the 23 5RU clones; test: Greenhouse glyphosate screening of seedlings; conditions: one quart per acre, sprayed at the three to four leaf stage, 74 out of 150
Tomahawk RT tall fescue = test: Glyphosate tolerance field trial, turf seeded fall 1998 near Hubbard, Oreg.; conditions: for Herbicide damage: scale 1-9, 9=no glyphosate damage; for Summer Stress: scale 1-9; for Turf quality (no herbicide): scale 1-9, 9=ideal quality
Procedure: (§1) The following tables show examples of field trials in which the glyphosate resistance characteristics of the Tomahawk RT variety were examined and compared to currently used tall fescue grass varieties. Grasses were seeded in the fall of 1998 near Hubbard, Oreg. and rated between November 1998 and September 1999.
(§2) 2, 1999. The score ratings are based on a scale of 1 to 9. For herbicide damage: 9 =no glyphosate damage; 8-7=10-20% yellowing; 6-5=30-40% yellowing with minor growth retardation; 4-3=50-60% yellowing with growth retardation; 2-1=70-90% yellowing with dead turf. For turf quality: 9=best turf quality, 0=dead turf.
(§3) Grasses were sprayed with 1 pint per acre glyphosate on Nov. 19, 1998 and ½ pint (8 oz.) per acre on Mar. 2, 1999. The effect of the herbicide application on turf quality and on glyphosate damage is shown, using a scale of 1 to 9 as described for Table 3 (9: ideal quality; no disease; no glyphosate damage). In addition, the percent of damage due to herbicide application (which indicates yellowing, stunting, and death) is shown.

Wolfpack tall fescue = test: as above; conditions: for Herbicide damage: scale 1-9, 9=no glyphosate damage; for Summer Stress: scale 1-9; for Turf quality (no herbicide): scale 1-9, 9=ideal quality
Procedure: as §1, §2, §3

Tomahawk E tall fescue = test: as above; conditions: for Herbicide damage: scale 1-9, 9=no glyphosate damage; for Summer Stress: scale 1-9; for Turf quality (no herbicide): scale 1-9, 9=ideal quality
Procedure: as §1, §2, §3

5HU tall fescue = test: as above; conditions: for Herbicide damage: scale 1-9, 9=no glyphosate damage; for Summer Stress: scale 1-9; for Turf quality (no herbicide): scale 1-9, 9=ideal quality
Procedure: as §1, §2, §3

Pure Gold tall fescue = test: as above; conditions: for Herbicide damage: scale 1-9, 9=no glyphosate damage; for Summer Stress: scale 1-9; for Turf quality (no herbicide): scale 1-9, 9=ideal quality
Procedure: as §1, §2, §3

Kentucky 31 tall fescue = test: as above; conditions: for Herbicide damage: scale 1-9, 9=no glyphosate damage; for Summer Stress: scale 1-9; for Turf quality (no herbicide): scale 1-9, 9=ideal quality
Procedure: as §1, §2, §3

Tar Heel tall fescue = test: as above; conditions: for Herbicide damage: scale 1-9, 9=no glyphosate damage; for Summer Stress: scale 1-9; for Turf quality (no herbicide): scale 1-9, 9=ideal quality
Procedure: as §1, §2, §3

[3] = 1/2 pint (8 oz.) per acre sprayed Mar. 2, 1999, rated 1 April
[4] = 1/2 pint (8 oz.) per acre sprayed Mar. 2, 1999, rated 20 April
[5] = 1/2 pint (8 oz.) per acre sprayed Mar. 2, 1999, rated 24 Sept
[6] = 1/2 pint per acre of glyphosate herbicide (41% w/v glyphosate), field, January through September 1999
[7] = 1 pint per acre Nov. 19, 1998 and 1/2 pint per acre Mar. 2, 1999, rated 1 Apr
[8] = 1 pint per acre Nov. 19, 1998 and 1/2 pint per acre Mar. 2, 1999, rated 1 May
[9] = 1 pint per acre Nov. 19, 1998 and 1/2 pint per acre Mar. 2, 1999, rated 20 Apr
[10] = 1 pint per acre Nov. 19, 1998 and 1/2 pint per acre Mar. 2, 1999, rated 24 Sept
[11] = 1 pint per acre of agricultural formulation (about 0.056 g per square meter glyphosate)
[12] = 1 pint per acre sprayed Nov. 19, 1998, rated 2 Mar
[13] = 1 pint per acre sprayed Nov. 19, 1998, rated 26 Dec, % damage (yellowing, stunting, death)
[14] = 1 pint per acre sprayed Nov. 19, 1998, rated 26 Jan

With `O=C(O)CNCP(=O)(O)O` [Glyphosate, N-(phosphonomethyl) glycine] the survivors [1] was 5%, the seedlings survived [2] was 50% and the Herbicide damage (Tomahawk RT tall fescue; [3]) was 7.5. For the same compound, the Herbicide damage (Tomahawk RT tall fescue; [4]) was 7.3, the “Summer Stress” value (Tomahawk RT tall fescue; [5]) was 6.5 and the “reduction in growth rate” value (Tomahawk RT tall fescue; [6]) was “no substantial reduction in growth rate”. For the same compound, the “yellowing of the grass” value (Tomahawk RT tall fescue; [6]) was “only minor amounts of yellowing”, the Herbicide damage % (Tomahawk RT tall fescue; [7]) was 72.5% and the “Turf quality (no herbicide)” value (Tomahawk RT tall fescue; [7]) was 6.3. The “Turf quality (no herbicide)” value (Tomahawk RT tall fescue; [8]) was 6.5, the “Turf quality (no herbicide)” value (Tomahawk RT tall fescue; [9]) was 6.0 and the “Summer Stress” value (Tomahawk RT tall fescue; [10]) was 7.8. The “recovery of grass plants not killed” value (Tomahawk RT tall fescue; [11]) was “complete recovery”, the “yellowing and retardation of plant growth” value (Tomahawk RT tall fescue; [11]) was “more yellowing of the grasses and a substantial retardation of plant growth” and the Herbicide damage (Tomahawk RT tall fescue; [12]) was 5.3. For the same compound, the Herbicide damage % (Tomahawk RT tall fescue; [13]) was 21.3%, the “Turf quality (no herbicide)” value (Tomahawk RT tall fescue; [14]) was 4.3 and the Herbicide damage (Tomahawk RT tall fescue; [14]) was 5.3. For the same compound, the “sensitivity to glyphosate herbicide applications” value (Tomahawk RT tall fescue; ambient temperature of the plants below about 32° C.) was “more sensitive”, the sensitivity to glyphosate (Tomahawk RT tall fescue; applied during the seedling stage, within the first 60-days of planting) was “more sensitive” and the “tolerated application of agricultural formulations of glyphosate herbicide” value (Tomahawk RT tall fescue; depending on time of year, age of the plants and environmental conditions) was “up to 1 pint per acre”. For the same compound, the Herbicide damage (Wolfpack tall fescue; [3]) was 4.0, the Herbicide damage (Wolfpack tall fescue; [4]) was 2.8 and the “Summer Stress” value (Wolfpack tall fescue; [5]) was 5.5. The Herbicide damage % (Wolfpack tall fescue; [7]) was 41.3%, the “Turf quality (no herbicide)” value (Wolfpack tall fescue; [7]) was 3.3 and the “Turf quality (no herbicide)” value (Wolfpack tall fescue; [8]) was 4.8. The “Turf quality (no herbicide)” value (Wolfpack tall fescue; [9]) was 4.5, the “Summer Stress” value (Wolfpack tall fescue; [10]) was 7.8 and the Herbicide damage (Wolfpack tall fescue; [12]) was 3.3. The Herbicide damage % (Wolfpack tall fescue; [13]) was 52.5%, the “Turf quality (no herbicide)” value (Wolfpack tall fescue; [14]) was 3.5 and the Herbicide damage (Wolfpack tall fescue; [14]) was 3.3. The Herbicide damage (Tomahawk E tall fescue; [3]) was 4.3, the Herbicide damage (Tomahawk E tall fescue; [4]) was 3.8 and the “Summer Stress” value (Tomahawk E tall fescue; [5]) was 6.3. For the same compound, the Herbicide damage % (Tomahawk E tall fescue; [7]) was 36.3%, the “Turf quality (no herbicide)” value (Tomahawk E tall fescue; [7]) was 2.8 and the “Turf quality (no herbicide)” value (Tomahawk E tall fescue; [8]) was 4.5. The “Turf quality (no herbicide)” value (Tomahawk E tall fescue; [9]) was 3.5, the “Summer Stress” value (Tomahawk E tall fescue; [10]) was 7.3 and the Herbicide damage (Tomahawk E tall fescue; [12]) was 2.3. The Herbicide damage % (Tomahawk E tall fescue; [13]) was 65.0%, the “Turf quality (no herbicide)” value (Tomahawk E tall fescue; [14]) was 2.8 and the Herbicide damage (Tomahawk E tall fescue; [14]) was 2.5. For the same compound, the Herbicide damage (5HU tall fescue; [3]) was 5.3, the Herbicide damage (5HU tall fescue; [4]) was 4.5 and the “Summer Stress” value (5HU tall fescue; [5]) was 6.3. For the same compound, the Herbicide damage % (5HU tall fescue; [7]) was 33.8%, the “Turf quality (no herbicide)” value (5HU tall fescue; [7]) was 2.8 and the “Turf quality (no herbicide)” value (5HU tall fescue; [8]) was 4.8. For the same compound, the “Turf quality (no herbicide)” value (5HU tall fescue; [9]) was 3.8, the “Summer Stress” value (5HU tall fescue; [10]) was 7.0 and the Herbicide damage (5HU tall fescue; [12]) was 3.5. For the same compound, the Herbicide damage % (5HU tall fescue; [13]) was 45.0%, the “Turf quality (no herbicide)” value (5HU tall fescue; [14]) was 3.3 and the Herbicide damage (5HU tall fescue; [14]) was 3.8. For the same compound, the Herbicide damage (Pure Gold tall fescue; [3]) was 5.3, the Herbicide damage (Pure Gold tall fescue; [4]) was 5.5 and the “Summer Stress” value (Pure Gold tall fescue; [5]) was 5.3. For the same compound, the Herbicide damage % (Pure Gold tall fescue; [7]) was 41.3%, the “Turf quality (no herbicide)” value (Pure Gold tall fescue; [7]) was 3.8 and the “Turf quality (no herbicide)” value (Pure Gold tall fescue; [8]) was 4.8. The “Turf quality (no herbicide)” value (Pure Gold tall fescue; [9]) was 3.8, the “Summer Stress” value (Pure Gold tall fescue; [10]) was 7.3 and the Herbicide damage (Pure Gold tall fescue; [12]) was 3.3. The Herbicide damage % (Pure Gold tall fescue; [13]) was 33.8%, the “Turf quality (no herbicide)” value (Pure Gold tall fescue; [14]) was 3.5 and the Herbicide damage (Pure Gold tall fescue; [14]) was 4.0. The Herbicide damage (Kentucky 31 tall fescue; [3]) was 3.3, the Herbicide damage (Kentucky 31 tall fescue; [4]) was 3.8 and the “Summer Stress” value (Kentucky 31 tall fescue; [5]) was 4.5. For the same compound, the Herbicide damage % (Kentucky 31 tall fescue; [7]) was 33.8%, the “Turf quality (no herbicide)” value (Kentucky 31 tall fescue; [7]) was 2.0 and the “Turf quality (no herbicide)” value (Kentucky 31 tall fescue; [8]) was 4.0. For the same compound, the “Turf quality (no herbicide)” value (Kentucky 31 tall fescue; [9]) was 3.3, the “Summer Stress” value (Kentucky 31 tall fescue; [10]) was 5.8 and the Herbicide damage (Kentucky 31 tall fescue; [12]) was 2.8. The Herbicide damage % (Kentucky 31 tall fescue; [13]) was 75.0%, the “Turf quality (no herbicide)” value (Kentucky 31 tall fescue; [14]) was 2.0 and the Herbicide damage (Kentucky 31 tall fescue; [14]) was 2.0. The Herbicide damage (Tar Heel tall fescue; [3]) was 5.0, the Herbicide damage (Tar Heel tall fescue; [4]) was 5.0 and the “Summer Stress” value (Tar Heel tall fescue; [5]) was 7.0. The Herbicide damage % (Tar Heel tall fescue; [7]) was 40.0%, the “Turf quality (no herbicide)” value (Tar Heel tall fescue; [7]) was 3.0 and the “Turf quality (no herbicide)” value (Tar Heel tall fescue; [8]) was 5.0. For the same compound, the “Turf quality (no herbicide)” value (Tar Heel tall fescue; [9]) was 4.0, the “Summer Stress” value (Tar Heel tall fescue; [10]) was 7.5 and the Herbicide damage (Tar Heel tall fescue; [12]) was 3.3. For the same compound, the Herbicide damage % (Tar Heel tall fescue; [13]) was 76.3%, the “Turf quality (no herbicide)” value (Tar Heel tall fescue; [14]) was 2.0 and the Herbicide damage (Tar Heel tall fescue; [14]) was 2.3.
